Data published in patent publication US20080108562A1, “Treatment Of Bone Metastases By Means Of Pth Receptor Agonists” (Ferring B.V., priority 2004, published 2008).
“Also recorded” adds a separate entry of the source.

What was measured:
PTH receptor = molecular target: T1, PTH receptor (Homo sapiens, UniProt Q03431); details: bone-related activities; relative to native 84 amino-acid hormone; cited from earlier work
T1 sequence (Q03431 27-593): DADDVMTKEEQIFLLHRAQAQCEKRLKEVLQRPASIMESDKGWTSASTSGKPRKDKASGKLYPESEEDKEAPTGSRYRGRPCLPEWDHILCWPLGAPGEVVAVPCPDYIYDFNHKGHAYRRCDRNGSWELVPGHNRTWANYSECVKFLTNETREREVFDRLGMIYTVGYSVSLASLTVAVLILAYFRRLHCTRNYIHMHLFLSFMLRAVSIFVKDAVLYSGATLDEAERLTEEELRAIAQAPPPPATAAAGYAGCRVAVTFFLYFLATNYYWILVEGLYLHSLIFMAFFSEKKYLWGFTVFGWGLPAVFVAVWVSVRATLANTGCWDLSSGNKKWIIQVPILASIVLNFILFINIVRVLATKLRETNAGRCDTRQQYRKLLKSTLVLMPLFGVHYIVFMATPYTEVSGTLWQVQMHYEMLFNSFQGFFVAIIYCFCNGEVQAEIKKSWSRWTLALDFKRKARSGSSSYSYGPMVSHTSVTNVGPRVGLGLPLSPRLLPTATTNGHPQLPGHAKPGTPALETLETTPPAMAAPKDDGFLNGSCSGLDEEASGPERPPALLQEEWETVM

[1] = tested on: adult C3H mice with murine CCL-11 (NCTC clone 2472) osteolytic sarcoma cells injected into the distal femur; assay: Radiological analysis of bone density in animal model for metastatic bone disease; type: in vivo
Description: (§1) An animal model for metastatic bone disease was established in adult C3H mice with murine sarcoma cells as described in Honore, et al., Neuroscience. (2000) 98(3):585-98 (see also Clohisy, et al. J Orthop Res. (1996) 14(3):396-402). In brief, murine CCL-11 (NCTC clone 2472) osteolytic sarcoma cells were injected into the distal femur. The injection site was closed with dental grade amalgam. Wounds were closed with wound clips. Wound clips were removed at day 6 to prevent interference with behavioral testing. Sham-injected and sarcoma-injected mice received daily subcutaneous injections of either 10 μl/kg vehicle or 10 μl/kg vehicle containing PTH (1-34) at 80 μg/ml concentration beginning after testing and radiographs were taken 6 d after injection of sarcoma cells. Treatment with PTH (1-34) or vehicle ended 14 d after injection, when final behavioral testing was done and the animals sacrificed.
[…] Mice were lightly anesthetized to prevent movement during the x-ray. The radiographs of the mouse femurs were scanned at maximal resolution (2400 dpi) and saved in digital grayscale format (TIFF). The grayscale levels were standardized for all radiographs by setting the amalgam region to white (grayscale value of 255) and the lower limit of the grayscale was set to the darkest pixels of the scanned image. The grayscale values correspond to the luminosity of the scanned images.
The images were analyzed with Metamorph (Universal Imaging Corp, West Chester, Pa.). The bones were divided into 3 equal regions. Data were taken from the lower region at the site were sarcoma cells were injected. Thresholding was standardized to include all pixels with grayscale values between 2 to 76. Since grayscale values are related to luminosity, an increase in the threshold area represents an increase in darker, or lower density, bone area. The integrated intensity values for the regions were determined with Metamorph. Significant decreases in the intensity of a region indicates a significant reduction in bone density. […]

[2] = tested on: adult C3H mice with murine CCL-11 (NCTC clone 2472) osteolytic sarcoma cells injected into the distal femur; assay: Spontaneous limb use in animal model for metastatic bone disease; type: in vivo; details: metastatic bone tumor animals, day 14
Description: as §1
Spontaneous limb use was assessed as described by Luger et al (2001). The mouse was placed in an empty mouse pan and observed while walking across the pan in a continuous motion. Limping and/or guarding behavior of the right (sarcoma treated) hindlimb was rated on the following scale: 0=complete lack of use, 1=partial non-use, 2=limping and guarding, 3=limping, 4=normal walking.

[3] = tested on: adult C3H mice with murine CCL-11 (NCTC clone 2472) osteolytic sarcoma cells injected into the distal femur; assay: Flinching and guarding behavior in animal model for metastatic bone disease; type: in vivo; details: metastatic bone tumor animals, day 14
Description: as §1
To assess flinching and guarding behavior, animals were placed in raised plexiglass chambers with a wire grid floor for observation of flinching and guarding of the right hindlimb. The mice were allowed to acclimate to the chamber for 20 minutes. Guarding and flinching behaviors of each mouse were measured for 2 minutes. The number of flinches were counted, and the time spent guarding the foot (the foot is lifted off of the floor) was measured.

[4] = tested on: adult C3H mice with murine CCL-11 (NCTC clone 2472) osteolytic sarcoma cells injected into the distal femur; assay: Tactile allodynia (von Frey paw withdrawal threshold) in animal model for metastatic bone disease; type: in vivo; details: metastatic bone tumor animals, day 14
Description: as §1, with “Treatment with PTH (1-34) or vehicle ended 14 d after injection, when final behavioral testing was done and the animals sacrificed.” left out
Tactile allodynia was determined in the manner described by Chaplan et al. J Neurosci Methods (1994) 53(1):55-63. Paw withdrawal threshold was determined in response to probing with calibrated von Frey filaments. […] The 50% paw withdrawal threshold was determined by the non-parametric method of Dixon (Dixon, Annu Rev Pharmacol Toxicol 20:441-462, 1980). […] The 50% paw withdrawal threshold was determined as (10^[Xf+kδ])/10,000, where Xf=the value of the last von Frey filament employed, k=Dixon value for the positive/negative pattern, and δ=the mean (log) difference between stimuli. […]

rats = details: rat, in vivo; cited from earlier work

Q: With “PTH(1-25): carboxyl-terminal truncation of PTH(1-34) (SVSEIQLMHNLGKHLNSMERVEWLR; UniProt P01270 32-56, looked up, fragment)” as the substance, how does the “agonist activity of PTH fragment” value (PTH receptor) read?
A: essentially inactive

Q: With “PTH(1-34): truncated form of parathyroid hormone, residues 1-34; PTH receptor agonist tested in the mouse model (SVSEIQLMHNLGKHLNSMERVEWLRKKLQDVHNF; listed as Homo sapiens)” as the substance, how does the “bone density (optical density of x-ray radiographs)” value (shortened to “bone density”) ([1]; normal (sham-injected) animals, daily s.c. PTH(1-34), day 14) read?
A: some bone density increase

Q: And the “bone density” value ([1]; sarcoma bearing animals, daily s.c. from day 6, day 14)?
A: near normal bone density

Q: What about the “bone density” value ([1]; sarcoma bearing animals, day 17, versus normal untreated animals) of the same substance?
A: increase in density over that of normal untreated animals

Q: What about the limb use [2] of the same substance?
A: ameloriated pain

Q: And the limb use ([2]; listed as PTH (1-34))?
A: returned to near normal levels

Q: What about the limb guarding [3] of the same substance?
A: ameloriated pain; also recorded: significantly reduced

Q: And the “spontaneous pain (spontaneous flinching)” value [3]?
A: ameloriated pain

Q: And the “tactile hypersensitivity (evoked pain)” value [4]?
A: not effected

Q: And the “tactile hypersensitivity (evoked pain)” value ([4]; listed as PTH (1-34))?
A: did not effect

Q: Which “risk of osteosarcoma (a malignant bone tumor)” value (rats) does the source give for teriparatide acetate here?
A: increased risk of osteosarcoma
